Patent US10538535B2, “Antitumoral compounds” (priority 2017, dated 2020)
Where two headings read alike, the source gives them in different places.

Legend:
[1] = MTMD (Maximum Tolerated Multiple Dose) determination, iv weekly x3; assay type: in vivo; conditions: mice; iv/Q7dx3
In short: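 Tolerability endpoints were systemic toxicity signs, body-weight change and mortality over 14 days after dosing. Dosing was intravenous at 10 mL/kg in female CD-1 or nude mice, as a single administration for MTD or once weekly ×3 for MTMD, with blank formulation as control.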

HGC27 tumors = conditions: HGC27 xenograft
Method: (§2) Female athymic nu/nu mice (Harlan Laboratories Models, S. L. Barcelona, Spain or Envigo, Spain) were utilized for all experiments. Animal were housed in individually ventilated cages Sealsafe® Plus, Techniplast S.P.A.), up to ten per cage on a 12-hour light-dark cycle at 21-23° C. and 40-60% humidity. […] Animals were acclimated for at least 5 days prior to tumor implantation with a tumor cell suspension.
HGC27 cells were maintained in vitro at 37° C. with 5% CO2 in Iscove's Modified Dulbecco's Medium (Sigma Aldrich, Co). Culture cells were passage every 3 to 5 days on reaching confluence. Each animal was subcutaneously implanted (on the right flank using 26 G needle and a 1 cc syringe) at 4-6 weeks of age with 5×10^6 HGC-27 cells suspended in 0.05 mL of a solution consisting of 50% Matrigel® (Corning Incorporated Life Sciences), 50% medium without serum or antibiotics.
(§3) Treatment tolerability was assessed by monitoring body weight evolution, clinical signs of systemic toxicity, as well as evidences of local damage in the injection site.
(§4) Treatments producing >20% lethality and/or 20% net body weight loss were considered toxic.

H460 tumors = conditions: iv, 0.5 mg/kg
Method: as §2
H460 cells were maintained in vitro at 37° C. with 5% CO2 in Dulbecco's Modified Eagle's Medium (Sigma-Aldrich, Co). Culture cells were passaged every 3 to 5 days upon reaching confluence. Each animal was subcutaneously implanted (on the right flank using 26 G needle and a 1 cc syringe) at 4-6 weeks of age with 5×10^6 H460 cells suspended in 0.05 mL of a solution consisting of 50% Matrigel® (Corning Incorporated Life Sciences) and 50% medium without serum or antibiotics.
as §3, §4

H526 tumors = assay: In vivo xenograft, human lung (SCLC) H526; conditions: iv weekly, 32 and ET-736 0.5 mg/Kg
Method: Female athymic nu/nu mice (Harlan Laboratories Models, S. L. Barcelona, Spain or Envigo, Spain) were utilized for all experiments. Animal were housed in individually ventilated cages Sealsafe® Plus, Techniplast S.P.A.), up to ten per cage on a 12-hour light-dark cycle at 21-23° C. and 40-60% humidity. Mice were allowed free access to irradiated standard rodent diet (Tecklad 2914C) and sterilized water. Animals were acclimated for at least 5 days prior to tumor implantation with a tumor cell suspension.
H526 cells were grown as a suspension and maintained by addition of fresh medium, as the cell density increases, every 2 to 3 days. Every week, culture was reestablished by centrifugation of the suspension with subsequent resuspension in fresh medium at a concentration of 1×10^5 cell/mL. Each animal was subcutaneously implanted (on the right flank using 26 G needle and a 1 cc syringe) at 4-6 weeks of age with 5×10^6 H526 cells suspended in 0.05 mL of a solution consisting of 50% Matrigel® (Corning Incorporated Life Sciences) and 50% medium without serum or antibiotics.
as §3, §4

A549 cells = assay: cells; conditions: Homo sapiens, A549, 72 h; for CC50: read-out: LC50; for IC (TGI): read-out: TGI
In short: (§1)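 SRB colorimetric readout, referenced to a time-zero fixed plate, after 72 h compound exposure over 10 to 0.003 μg/mL (ten 2/5 dilutions, 1% DMSO final, triplicates). Human lines grown in DMEM/10% FBS, plated at 5000 cells/well overnight; four-parameter logistic fitting per NCI algorithm.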

PSN1 cells = assay: cells; conditions: Homo sapiens, PSN1, 72 h; for CC50: read-out: LC50; for IC (TGI): read-out: TGI
In short: as §1

MDA-MB-231 cells = assay: cells; conditions: Homo sapiens, MDA-MB-231, 72 h; for CC50: read-out: LC50; for IC (TGI): read-out: TGI
In short: as §1

HT29 cells = assay: cells; conditions: Homo sapiens, HT-29, 72 h; for CC50: read-out: LC50; for IC (TGI): read-out: TGI
In short: as §1

A2780 tumors = conditions: A2780 xenograft
Method: as §2
Culture cells were passaged every 3 to 5 days upon reaching confluence. Each animal was subcutaneously implanted (on the right flank using 26 G needle and a 1 cc syringe) at 4-6 weeks of age with 10×10^6 A2780 cells suspended in 0.05 mL of a solution consisting of 50% Matrigel® (Corning Incorporated Life Sciences) and 50% medium without serum or antibiotics.
as §3
In xenograft studies with other cell lines: • Tumor volume was calculated using the equation (a·b^2)/2, where a: length (longest diameter) and b: width (shortest diameter) were measured in mm by using digital caliper (Fowler Sylvac, S235PAT).
as §4

COc1c(C)cc2c(c1O)[C@@H]1[C@@H]3[C@@H]4SC[C@]5(NCCc6c5oc5ccccc65)C(=O)OC[C@@H](c5c6c(c(C)c(OC(C)=O)c54)OCO6)N3[C@@H](O)[C@H](C2)N1C [Compound 32]
MTMD [1]: 0.5 mg/kg | Median Tumor Volume (HGC27 tumors; Day 0): 194.8 mm^3 | Median Tumor Volume (HGC27 tumors; Day 2): 386.3 mm^3 | Median Tumor Volume (HGC27 tumors; Day 5): 551.3 mm^3 | Median Tumor Volume (HGC27 tumors; Day 7): 579.2 mm^3 | Median Tumor Volume (HGC27 tumors; Day 9): 665.8 mm^3 | Median Tumor Volume (HGC27 tumors; Day 12): 701.1 mm^3 | Median Tumor Volume (HGC27 tumors; Day 14): 814.5 mm^3 | Median Tumor Volume (HGC27 tumors; Day 16): 959.9 mm^3 | Median Tumor Volume (HGC27 tumors; Day 19): 1312.4 mm^3 | Median Tumor Volume (HGC27 tumors; Day 21): 1626.8 mm^3 | Median Tumor Volume (HGC27 tumors; Day 23): 1737.3 mm^3 | Median Tumor Volume (H460 tumors; 0 h): 183.9 mm^3 | Median Tumor Volume (H460 tumors; 48 h): 455.2 mm^3 | Median Tumor Volume (H460 tumors; 120 h): 784.8 mm^3 | Median Tumor Volume (H460 tumors; 168 h): 837.4 mm^3 | Median Tumor Volume (H460 tumors; 336 h): 1845.5 mm^3 | Median Tumor Volume (H460 tumors; 384 h): 2025.0 mm^3 | Median Tumor Volume (H526 tumors; Table 63, Day 0): 212.1 mm^3 | Median Tumor Volume (H526 tumors; Table 63, Day 2): 277.3 mm^3 | Median Tumor Volume (H526 tumors; Table 63, Day 4): 127.0 mm^3 | Median Tumor Volume (H526 tumors; Table 63, Day 7): 95.0 mm^3 | Median Tumor Volume (H526 tumors; Table 63, Day 9): 63.1 mm^3 | Median Tumor Volume (H526 tumors; Table 63, Day 11): 62.5 mm^3 | Median Tumor Volume (H526 tumors; Table 63, Day 14): 62.5 mm^3 | Median Tumor Volume (H526 tumors; Table 63, Day 16): 62.5 mm^3 | Median Tumor Volume (H526 tumors; Table 63, Day 21): 4.0 mm^3 | Median Tumor Volume (H526 tumors; Table 63, Day 28): 4.0 mm^3 | Median Tumor Volume (H526 tumors; Table 63, Day 35): 55.3 mm^3 | Median Tumor Volume (H526 tumors; Table 63, Day 42): 85.3 mm^3 | Median Tumor Volume (H526 tumors; Table 63, Day 49): 185.6 mm^3 | Median Tumor Volume (H526 tumors; Table 63, Day 56): 169.1 mm^3 | Median Tumor Volume (H526 tumors; Table 63, Day 63): 62.5 mm^3 | Median Tumor Volume (H526 tumors; Table 63, Day 70): 88.9 mm^3 | Median Tumor Volume (H526 tumors; Table 63, Day 77): 280.6 mm^3 | Median Tumor Volume (H526 tumors; Table 63, Day 84): 694.2 mm^3 | Median Tumor Volume (H526 tumors; Table 63, Day 91): 1150.9 mm^3 | GI50 (A549 cells): 6.88 nM | CC50 (A549 cells): > 13.2 nM | IC (TGI) (A549 cells): > 13.2 nM | GI50 (PSN1 cells): 6.09 nM | CC50 (PSN1 cells): 12 nM | IC (TGI) (PSN1 cells): 8.34 nM | GI50 (MDA-MB-231 cells): 4.76 nM | CC50 (MDA-MB-231 cells): > 13.2 nM | IC (TGI) (MDA-MB-231 cells): 10.5 nM | GI50 (HT29 cells): 6.88 nM | CC50 (HT29 cells): > 13.2 nM | IC (TGI) (HT29 cells): > 13.2 nM | Median Tumor Volume (A2780 tumors; Day 0): 168.6 mm^3 | Median Tumor Volume (A2780 tumors; Day 2): 262.9 mm^3 | Median Tumor Volume (A2780 tumors; Day 5): 572.7 mm^3 | Median Tumor Volume (A2780 tumors; Day 7): 997.5 mm^3 | Median Tumor Volume (A2780 tumors; Day 9): 1359.9 mm^3 | Median Tumor Volume (A2780 tumors; Day 12): 1715.0 mm^3 | Median Tumor Volume (A2780 tumors; Day 14): 2025.0 mm^3 | Median Tumor Volume (A2780 tumors; Day 16): 2025.0 mm^3

COc1c(C)cc2c(c1O)[C@@H]1[C@@H]3[C@@H]4SC[C@]5(NCCc6c5[nH]c5ccccc65)C(=O)OC[C@@H](c5c6c(c(C)c(OC(C)=O)c54)OCO6)N3[C@@H](O)[C@H](C2)N1C [ET-736, Ecteinascidin 736]
MTMD [1]: 0.5 mg/kg | Median Tumor Volume (HGC27 tumors; Day 0): 195.9 mm^3 | Median Tumor Volume (HGC27 tumors; Day 2): 359.2 mm^3 | Median Tumor Volume (HGC27 tumors; Day 5): 537.6 mm^3 | Median Tumor Volume (HGC27 tumors; Day 7): 553.5 mm^3 | Median Tumor Volume (HGC27 tumors; Day 9): 604.7 mm^3 | Median Tumor Volume (HGC27 tumors; Day 12): 627.4 mm^3 | Median Tumor Volume (HGC27 tumors; Day 14): 648.0 mm^3 | Median Tumor Volume (HGC27 tumors; Day 16): 687.6 mm^3 | Median Tumor Volume (HGC27 tumors; Day 19): 760.0 mm^3 | Median Tumor Volume (HGC27 tumors; Day 21): 792.4 mm^3 | Median Tumor Volume (HGC27 tumors; Day 23): 818.9 mm^3 | Median Tumor Volume (HGC27 tumors; Day 26): 1026.1 mm^3 | Median Tumor Volume (HGC27 tumors; Day 28): 1354.9 mm^3 | Median Tumor Volume (H460 tumors; 0 h): 185.8 mm^3 | Median Tumor Volume (H460 tumors; 48 h): 457.8 mm^3 | Median Tumor Volume (H460 tumors; 120 h): 732.8 mm^3 | Median Tumor Volume (H460 tumors; 168 h): 930.1 mm^3 | Median Tumor Volume (H460 tumors; 336 h): 1845.5 mm^3 | Median Tumor Volume (H460 tumors; 384 h): 2025.0 mm^3 | Median Tumor Volume (H526 tumors; Table 63, Day 0): 213.5 mm^3 | Median Tumor Volume (H526 tumors; Table 63, Day 2): 240.5 mm^3 | Median Tumor Volume (H526 tumors; Table 63, Day 4): 97.2 mm^3 | Median Tumor Volume (H526 tumors; Table 63, Day 7): 48.8 mm^3 | Median Tumor Volume (H526 tumors; Table 63, Day 9): 62.5 mm^3 | Median Tumor Volume (H526 tumors; Table 63, Day 11): 62.5 mm^3 | Median Tumor Volume (H526 tumors; Table 63, Day 14): 47.3 mm^3 | Median Tumor Volume (H526 tumors; Table 63, Day 16): 32.0 mm^3 | Median Tumor Volume (H526 tumors; Table 63, Day 21): 4.0 mm^3 | Median Tumor Volume (H526 tumors; Table 63, Day 28): 4.0 mm^3 | Median Tumor Volume (H526 tumors; Table 63, Day 35): 4.0 mm^3 | Median Tumor Volume (H526 tumors; Table 63, Day 42): 4.0 mm^3 | Median Tumor Volume (H526 tumors; Table 63, Day 49): 4.0 mm^3 | Median Tumor Volume (H526 tumors; Table 63, Day 56): 4.0 mm^3 | Median Tumor Volume (H526 tumors; Table 63, Day 63): 4.0 mm^3 | Median Tumor Volume (H526 tumors; Table 63, Day 70): 4.0 mm^3 | Median Tumor Volume (H526 tumors; Table 63, Day 77): 4.0 mm^3 | Median Tumor Volume (H526 tumors; Table 63, Day 84): 199.8 mm^3 | Median Tumor Volume (H526 tumors; Table 63, Day 91): 786.5 mm^3 | GI50 (A549 cells): 22.5 nM | CC50 (A549 cells): > 132 nM | IC (TGI) (A549 cells): 47.7 nM | GI50 (PSN1 cells): 39.7 nM | CC50 (PSN1 cells): 102 nM | IC (TGI) (PSN1 cells): 59.6 nM | GI50 (MDA-MB-231 cells): 21.2 nM | CC50 (MDA-MB-231 cells): 47.7 nM | IC (TGI) (MDA-MB-231 cells): 25.2 nM | GI50 (HT29 cells): 21.2 nM | CC50 (HT29 cells): > 132 nM | IC (TGI) (HT29 cells): 22.5 nM | Median Tumor Volume (A2780 tumors; Day 0): 168.8 mm^3 | Median Tumor Volume (A2780 tumors; Day 2): 251.2 mm^3 | Median Tumor Volume (A2780 tumors; Day 5): 382.6 mm^3 | Median Tumor Volume (A2780 tumors; Day 7): 676.1 mm^3 | Median Tumor Volume (A2780 tumors; Day 9): 959.4 mm^3 | Median Tumor Volume (A2780 tumors; Day 12): 1241.5 mm^3 | Median Tumor Volume (A2780 tumors; Day 14): 1582.7 mm^3 | Median Tumor Volume (A2780 tumors; Day 16): 1646.4 mm^3 | Median Tumor Volume (A2780 tumors; Day 19): 1845.5 mm^3 | Median Tumor Volume (A2780 tumors; Day 21): 2025.0 mm^3
